Holding throughout (experiment): biochemical
Test [1] concerns the target T1, recombinant delta opiod receptor expressed in CHO-K1 cells (Homo sapiens, UniProt P41143).
T1 construct: purchased Receptor Biology Inc., Beltsville, Md; host or cells: CHO-K1
The conditions noted are these: 0.2 nM [3H]-naltrindole, Table 1; read-out: Delta-Receptor Binding Affinity Ki.

Test [2] deals with T2, recombinant kappa opiod receptor expressed in HEK 293 cells (Homo sapiens, UniProt P41145).
T2 construct: purchased Receptor Biology Inc; host or cells: HEK 293
T2 sequence (P41145 whole entry): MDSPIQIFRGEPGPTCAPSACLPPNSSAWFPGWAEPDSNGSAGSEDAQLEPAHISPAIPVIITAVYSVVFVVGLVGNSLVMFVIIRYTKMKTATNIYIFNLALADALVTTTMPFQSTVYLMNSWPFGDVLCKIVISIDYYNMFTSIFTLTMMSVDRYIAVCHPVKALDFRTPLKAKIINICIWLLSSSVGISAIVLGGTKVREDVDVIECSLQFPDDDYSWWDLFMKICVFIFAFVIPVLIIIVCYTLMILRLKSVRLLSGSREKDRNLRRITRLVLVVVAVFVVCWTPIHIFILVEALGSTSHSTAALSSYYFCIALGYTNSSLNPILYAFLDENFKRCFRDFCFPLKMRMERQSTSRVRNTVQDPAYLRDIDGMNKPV
Format: binding.

Test [3] concerns the target T3, recombinant mu-opioid receptor expressed in CHO-K1 cells (Homo sapiens, UniProt P35372).
T3 construct: purchased Receptor Biology Inc; host or cells: CHO-K1
Type of test: binding. The conditions noted are these: for selectivity for mu opioid receptors relative to delta and kappa opioid receptors: from Ki data of Table 4.

[4] abbreviates: 0.15 nM [3H]-bremazocine, Table 2, read-out: Kappa-Receptor Binding Affinity Ki.
[5] abbreviates: 0.2 nM [3H]-diprenorphine, Table 3, read-out: Mu-Receptor Binding Affinity Ki.

The source of these data is patent publication US6740641B2 (priority 2001, dated 2004).

Like-named read-outs stand apart in the source and are kept apart here.

T3 sequence (P35372 whole entry): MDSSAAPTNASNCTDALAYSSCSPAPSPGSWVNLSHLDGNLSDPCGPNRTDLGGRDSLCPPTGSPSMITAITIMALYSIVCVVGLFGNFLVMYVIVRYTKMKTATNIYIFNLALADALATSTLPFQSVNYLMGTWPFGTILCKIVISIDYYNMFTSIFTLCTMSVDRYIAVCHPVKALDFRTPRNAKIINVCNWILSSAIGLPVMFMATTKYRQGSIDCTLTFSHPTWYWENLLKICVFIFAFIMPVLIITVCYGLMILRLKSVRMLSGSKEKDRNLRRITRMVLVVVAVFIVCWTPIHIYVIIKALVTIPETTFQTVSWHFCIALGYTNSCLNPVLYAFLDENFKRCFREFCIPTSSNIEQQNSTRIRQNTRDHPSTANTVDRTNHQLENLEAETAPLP
T1 sequence (P41143 whole entry): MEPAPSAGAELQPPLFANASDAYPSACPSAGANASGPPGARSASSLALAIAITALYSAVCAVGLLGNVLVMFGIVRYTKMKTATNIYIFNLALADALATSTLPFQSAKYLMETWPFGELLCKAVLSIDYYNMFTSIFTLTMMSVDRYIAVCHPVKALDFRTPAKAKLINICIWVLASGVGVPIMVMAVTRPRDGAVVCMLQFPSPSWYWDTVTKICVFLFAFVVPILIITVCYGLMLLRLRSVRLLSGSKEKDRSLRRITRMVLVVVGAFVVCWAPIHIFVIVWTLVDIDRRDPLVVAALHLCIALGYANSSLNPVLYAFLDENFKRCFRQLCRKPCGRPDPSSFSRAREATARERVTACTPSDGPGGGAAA

Consider `CN1CCC23c4c5ccc(O)c4O[C@H]2[C@H](OC2OC(CO)C(O)C(O)C2O)CCC3C1C5` (stereo partly drawn) [Dihydroisomorphine-6-glucoside, 6-O-Glucosyldihydroisomorphine], for which the Ki in test [1] was 868 nM; in test [2] (setting [4]), 440 nM; in test [3] (setting [5]), 4.7 nM. Besides, the “mu selectivity compared with morphine sulfate” value in test [3] is on record as “higher than that of morphine sulfate”. Further, in test [3], the “selectivity for mu opioid receptors relative to delta and kappa opioid receptors” value is “high selectivity for mu opioid receptors”.
On to `CN1CC[C@]23c4c5ccc(O)c4O[C@H]2[C@@H](O)CC[C@H]3[C@H]1C5` [Dihydromorphine, reference compound], for which, in test [3], the Ki was 0.39 nM.
For `CN1CC[C@]23c4c5ccc(OC6O[C@H](CO)[C@@H](O)[C@H](O)[C@H]6O)c4O[C@H]2C(=O)CC[C@H]3[C@H]1C5` (stereo partly drawn) [Hydromorphone-3-glucoside, 3-O-Glucosylhydromorphone], the results for the Ki in test [1], in test [2] (setting [4]) and in test [3] (setting [5]) were 4500 nM, 2400 nM and 51 nM, respectively. The “mu selectivity compared with morphine sulfate” value in test [3] is recorded as “higher than that of morphine sulfate”. Also, the “selectivity for mu opioid receptors relative to delta and kappa opioid receptors” value in test [3] is given as “high selectivity for mu opioid receptors”.
With `Oc1ccc2c3c1O[C@H]1c4oc5ccccc5c4C[C@@]4(O)[C@@H](C2)N(CC2CC2)CC[C@]314` [Naltriben, reference compound], in test [2], the Ki is 2.4 nM.
